We go through 35 molecules from ChEMBL document CHEMBL4334527, “Proline-Based Allosteric Inhibitors of Zika and Dengue Virus NS2B/NS3 Proteases” (J Med Chem, 2019).

A short description of series [1]: Inhibition of N-terminal hexa-histidine tagged Dengue virus 2 NS2B/NS3 protease I30A/L31A mutant expressed in Escherichia coli BL21-Gold (DE3) using fluorogenic AMC-substituted peptide boc-GRR-7-amino-4-methylcoumarin measured every 30 secs for 10 mins by fluorometric assay. Set-up: species or system dengue virus type 2.
Series [2] addresses T1, Nonstructural protein 3 (Zika virus, UniProt A0A024AXB9). The series can be described thus: Inhibition of N-terminal hexa-histidine tagged Zika virus NS2B/NS3 protease expressed in Escherichia coli BL21-Gold (DE3) using fluorogenic AMC-substituted peptide boc-GRR-7-amino-4-methylcoumarin measured every 30 secs for 10 mins by fluorometric assay.
In series [3] the test system is Zika virus. Nature of the series: Antiviral activity against Zika virus infected in African green monkey Vero cells assessed as suppression of viral replication at 3 uM pre-incubated with cells for 1 hr before viral infection and measured after 4 days by RT-qPCR analysis. It is filed as functional, organism-based.
In series [4] the test system is dengue virus type 2. Nature of the series: Antiviral activity against Dengue virus 2 infected in African green monkey Vero cells assessed as suppression of viral replication at 3 uM pre-incubated with cells for 1 hr before viral infection and measured after 4 days by RT-qPCR analysis. It is filed as functional, organism-based. For orientation: In qPCR the cycle at which signal appears reflects the starting amount.

The subject of series [5] is dengue virus type 2. Nature of the series: Inhibition of N-terminal hexa-histidine tagged Dengue virus 2 NS2B/NS3 protease I30A/L31A mutant expressed in Escherichia coli BL21-Gold (DE3) at 20 uM using fluorogenic AMC-substituted peptide boc-GRR-7-amino-4-methylcoumarin measured every 30 secs for 10 mins by fluorometric assay relative to control.
The test system of series [6] is Zika virus. Nature of the series: Antiviral activity against Zika virus French Polynesia infected in human A549 cells assessed as reduction in viral RNA at 5 uM measured after 24 to 72 hrs post infection by RT-qPCR analysis. In kind it is functional, organism-based.
Series [7] concerns Zika virus. The series can be described thus: Antiviral activity against Zika virus infected in African green monkey Vero cells assessed as suppression of viral replication at 10 uM pre-incubated with cells for 1 hr before viral infection and measured after 4 days by RT-qPCR analysis. It is filed as functional, organism-based.
Series [8] in a line: Drug level in rat liver microsomes treated with (S)-N-(5,6-Dimethoxybenzo[d]thiazol-2-yl)-1-tosylpyrrolidine-2-carboxamide assessed as compound formation in presence of NADPH generating system by LC-MS/MS analysis. In kind it is ADME, Microsome. Background: Liver microsomes are vesicles of endoplasmic reticulum, rich in cytochrome P450 enzymes.
Series [9] deals with T1, Nonstructural protein 3. Nature of the series: Binding affinity to N-terminal hexa-histidine tagged Zika virus NS2B/NS3 protease expressed in Escherichia coli BL21-Gold (DE3) by microscale thermophoresis method. In general terms: In MST a laser heats a spot of the sample, and binding alters the fluorescence response.
For series [10], the system named is A549. Nature of the series: Cytotoxicity against human A549 cells assessed as reduction in cell viability up to 5 uM by Presto blue cell viability reagent based assay.
Series [11] deals with Zika virus. Nature of the series: Antiviral activity against Zika virus Uganda infected in human A549 cells assessed as reduction in viral RNA at 5 uM measured after 24 to 72 hrs post infection by RT-qPCR analysis. It is filed as functional, organism-based.
Series [12] in a line: Drug level in rat liver microsomes treated with (R)-N-(5,6-Dimethoxybenzo[d]thiazol-2-yl)-1-tosylpyrrolidine-2-carboxamide assessed as compound formation in presence of NADPH generating system by LC-MS/MS analysis. It is filed as ADME, Microsome.
The target of series [13] is Nonstructural protein 3 (Zika virus) (UniProt A0A024AXB9). Nature of the series: Inhibition of N-terminal hexa-histidine tagged Zika virus NS2B/NS3 protease expressed in Escherichia coli BL21-Gold (DE3) at 20 uM using fluorogenic AMC-substituted peptide boc-GRR-7-amino-4-methylcoumarin measured every 30 secs for 10 mins by fluorometric assay relative to control.
Nonstructural protein 3 (Zika virus), sequence (A0A024AXB9 as listed by the source): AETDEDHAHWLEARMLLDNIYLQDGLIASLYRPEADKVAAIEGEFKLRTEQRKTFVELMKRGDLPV
Series [14] in a line: Drug metabolism in rat liver microsomes assessed as formation of (R)-N-(5,6-Dihydroxybenzo[d]thiazol-2-yl)-1-tosylpyrrolidine-2-carboxamide in presence of NADPH generating system by LC-MS/MS analysis. It is filed as ADME, Microsome.
Series [15] concerns dengue virus type 2. The series can be described thus: Antiviral activity against Dengue virus 2 infected in African green monkey Vero cells assessed as suppression of viral replication at 10 uM pre-incubated with cells for 1 hr before viral infection and measured after 4 days by RT-qPCR analysis. It is filed as functional, organism-based.
The nature of series [16]: Drug metabolism in rat liver microsomes assessed as formation of (S)-1-Benzoyl-N-(5,6-dihydroxybenzo[d]thiazol-2-yl)pyrrolidine-2-carboxamide in presence of NADPH generating system by LC-MS/MS analysis. It is filed as ADME, Microsome.
Series [17] is described as follows: Drug metabolism in rat liver microsomes assessed as formation of (S)-N-(5,6-Dimethoxybenzo[d]thiazol-2-yl)-1-((4-(hydroxymethyl) phenyl) sulfonyl)pyrrolidine-2-carboxamide in presence of NADPH generating system by LC-MS/MS analysis. In kind it is ADME, Microsome.
Series [18] in a line: Drug metabolism in rat liver microsomes assessed as formation of (R)-N-(5,6-Dimethoxybenzo[d]thiazol-2-yl)-1-((4-(hydroxymethyl) phenyl) sulfonyl)pyrrolidine-2-carboxamide in presence of NADPH generating system by LC-MS/MS analysis. It is filed as ADME, Microsome.

Calls of active or inactive are those of the source. No cut-off for these calls is given here.

T1 sequence (A0A024AXB9 whole entry): as the sequence (A0A024AXB9 as listed by the source) above

With `O=C(Nc1nc2cc(O)c(O)cc2s1)[C@H]1CCCN1S(=O)(=O)c1ccc([N+](=O)[O-])cc1`, the IC50 (usually the concentration that inhibits the measured activity by half) in [1] worked out at 10 µM; in series [2], 0.32 µM. Also, in [3], the outcome was inactive. The outcome in [4] was Active.

Take `O=C(Nc1nc2cc(O)c(O)cc2s1)[C@H]1CCCN1S(=O)(=O)c1ccc(Cl)cc1`: the IC50 in series [2] was 1.4 µM. In addition, the inhibition (as a rule, the change of the read-out against control, counted positive when it falls) in [5] is 34%.

Consider `O=C(Nc1nc2cc(O)c(O)cc2s1)[C@H]1CCCN1S(=O)(=O)c1ccc(-c2ccccc2)cc1`, for which the figures for the half-inhibitory concentration (IC50) in [1] and in [2] were 10.9 µM and 2.47 µM, respectively.

`O=C(Nc1nc2cc(O)c(O)cc2s1)[C@H]1CCCN1C(=O)c1ccccc1` returned an IC50 in series [2] of 0.94 µM. The inhibition in series [5] came out at 33%.

Take `Cc1ccc(S(=O)(=O)N2CCC[C@H]2C(=O)Nc2nc3cc(O)c(O)cc3s2)cc1`: the outcome in series [6], in series [7] and in series [11] was inactive. For the same molecule, the IC50 in series [1] worked out at 25.2 µM; in series [2] it was 2.32 µM. Further, the Drug uptake result in [8] and in series [12] was “Active” each time. For the same molecule, in [9], the Kd (in general, the free concentration of one partner at which half of the binding sites on the other are occupied at equilibrium, for simple one-to-one binding) is 0.24 µM. The Activity entry in series [10] is given as “Non-Toxic”.

For `COc1ccc(S(=O)(=O)N2CCC[C@@H]2C(=O)Nc2nc3cc(OC)c(OC)cc3s2)cc1`, the inhibition result in series [5] and in series [13] was “inactive” throughout.

Turning to `Cc1ccc(S(=O)(=O)N2CCCC[C@H]2C(=O)Nc2nc3cc(O)c(O)cc3s2)cc1`, the IC50 is 13 µM in series [1] and 0.51 µM in [2].

`O=C(Nc1nc2cc(O)c(O)cc2s1)[C@@H]1CCCN1C(=O)c1ccccc1` returned an IC50 in series [2] of 1.55 µM. The molecule further registered an inhibition in series [5] of 28%.

Take `COc1cc2nc(NC(=O)[C@@H]3CCCN3S(=O)(=O)c3ccc(CO)cc3)sc2cc1OC`: the Drug uptake entry in [8] and in [12] was “Active” throughout.

Regarding `CC(=O)Nc1ccc2cc(S(=O)(=O)N3CCC[C@H]3C(=O)Nc3nc4cc(O)c(O)cc4s3)ccc2c1`, 2.95 µM corresponded to half-maximal inhibition in [2] (IC50). Besides, the inhibition in series [5] is 29%.

`COc1cc2nc(NC(=O)[C@H]3CCCN3S(=O)(=O)c3ccc(CO)cc3)sc2cc1OC`: the Drug uptake result in series [8] and in series [12] was “Active” each time.

Consider `O=C(Nc1nc2cc(O)c(O)cc2s1)[C@@H]1CCCN1S(=O)(=O)c1cccc([N+](=O)[O-])c1`, for which, in series [2], the IC50 was 1.78 µM. In series [5], this molecule gave an inhibition of 25%.

On to `COc1cc2nc(NC(=O)C3CCCN3S(=O)(=O)c3ccc([N+](=O)[O-])cc3)sc2cc1OC` (stereo not given), for which the inhibition entry in series [5] and in series [13] was “inactive” each time.

Regarding `O=C(Nc1nc2cc(O)c(O)cc2s1)[C@@H]1CCCN1S(=O)(=O)c1ccc(Cl)cc1`, the IC50 in [2] is 0.93 µM. The same molecule displayed an inhibition in [5] of 39%.

With `COc1cc2nc(NC(=O)C3CCCN3S(=O)(=O)c3ccc(Cl)cc3)sc2cc1OC` (stereo not given), the inhibition entry in series [5] and in [13] was “inactive” in each case.

On to `O=C(Nc1nc2ccc([N+](=O)[O-])cc2s1)[C@@H]1CCCN1C(=O)c1ccccc1`, for which the inhibition was determined as 41% in [5] and 44% in series [13].

Regarding `COc1cc2nc(NC(=O)C3CCCN3S(=O)(=O)c3ccc(C)cc3)sc2cc1OC` (stereo not given), the inhibition result in series [5] and in series [13] was “inactive” in each case.

Take `CC(=O)Nc1ccc2cc(S(=O)(=O)N3CCC[C@@H]3C(=O)Nc3nc4cc(O)c(O)cc4s3)ccc2c1`: the IC50 in series [2] amounted to 1.35 µM. The same molecule registered an inhibition in series [5] of 18%.

As for `COc1ccc(S(=O)(=O)N2CCC[C@H]2C(=O)Nc2nc3cc(O)c(O)cc3s2)cc1`, the 50% inhibitory concentration (IC50) in [2] was 1.32 µM. For the same molecule, the inhibition in series [5] is 36%.

As to `COc1cc2nc(NC(=O)[C@@H]3CCCN3S(=O)(=O)c3ccc(C)cc3)sc2cc1OC`, the result in series [6], in [7] and in [11] was inactive. Also, the Drug metabolism result in [14], in series [16], in series [17] and in series [18] was “Metabolite_Detected” in each case. Besides, in series [15], the result was Active. Further, the Activity entry in [10] was “Non-Toxic”.

For the molecule `O=C(Nc1nc2ccc([N+](=O)[O-])cc2s1)[C@H]1CCCN1C(=O)c1ccccc1`, the IC50 in [1] was determined as 33.9 µM; in [2] it was 21.9 µM.

Regarding `O=C(Nc1nc2cc(O)c(O)cc2s1)[C@@H]1CCCN1S(=O)(=O)c1ccc(-c2ccccc2)cc1`, the figures for the half-inhibitory concentration (IC50) in series [1] and in series [2] were 13.5 µM and 3.17 µM, respectively.

On to `O=C(Nc1nc2cc(O)c(O)cc2s1)[C@@H]1CCCN1S(=O)(=O)c1ccccc1`, for which, in series [2], the IC50 came out at 1.43 µM. The inhibition in series [5] is 27%.

Consider `Cc1ccc(S(=O)(=O)N2CCC(C(=O)Nc3nc4cc(O)c(O)cc4s3)CC2)cc1`, for which the IC50 in series [2] came to 5.95 µM. This molecule also returned an inhibition in series [5] of 41%.

As for `Cc1ccc(S(=O)(=O)N2CCC[C@@H]2C(=O)Nc2nc3ccc([N+](=O)[O-])cc3s2)cc1`, the inhibition in [5] stood at 18%; in [13], 31%.

As to `O=C(Nc1nc2cc(O)c(O)cc2s1)[C@@H]1CCCN1S(=O)(=O)c1ccc([N+](=O)[O-])cc1`, the IC50 was found to be 8.58 µM in series [1] and 0.93 µM in series [2]. Moreover, in [7], the outcome was inactive. In series [15], the result was Active.

For the molecule `O=C(Nc1nc2cc(O)c(O)cc2s1)C1CCCCC1`, the inhibition in series [5] worked out at 20%; in [13], 36%.

Turning to `Cc1ccc(S(=O)(=O)N2CCCC[C@@H]2C(=O)Nc2nc3cc(O)c(O)cc3s2)cc1`, the IC50 in series [1] was 29 µM; in series [2], 0.58 µM.

Regarding `Cc1ccc(S(=O)(=O)N2CCC[C@@H]2C(=O)Nc2nc3cc(O)c(O)cc3s2)cc1`, the result in series [6], in series [3] and in series [11] was inactive. Also, the IC50 in [1] came to 19.7 µM; in [2], 1.32 µM. For the same molecule, the Drug uptake result in [8] and in series [12] was “Active” throughout. Moreover, the Kd in series [9] is 0.49 µM. In addition, in series [10], the Activity result is listed as “Non-Toxic”.

For the molecule `O=C(Nc1nc2cc(O)c(O)cc2s1)[C@H]1CCCN1S(=O)(=O)c1cccc([N+](=O)[O-])c1`, the IC50 in series [2] turned out to be 1.11 µM. The molecule further gave an inhibition in [5] of 33%.

The molecule `COc1ccc(S(=O)(=O)N2CCC[C@@H]2C(=O)Nc2nc3cc(O)c(O)cc3s2)cc1` displayed an IC50 in series [2] of 0.86 µM. The inhibition in [5] came to 28%.

As to `O=C(Nc1nc2cc(O)c(O)cc2s1)[C@H]1CCCN1S(=O)(=O)c1ccc(F)cc1`, half-maximal inhibition in series [2] (IC50) was put at 1.03 µM. The same molecule yielded an inhibition in [5] of 17%.

With `O=C(Nc1nc2cc(O)c(O)cc2s1)[C@H]1CCCN1S(=O)(=O)c1ccccc1`, in [2], half-maximal inhibition (IC50) required 1.86 µM. This molecule also displayed an inhibition in [5] of 21%.

For `Cc1ccc(S(=O)(=O)N2CCCC(C(=O)Nc3nc4cc(O)c(O)cc4s3)C2)cc1` (racemic), the midpoint of inhibition in series [2], the IC50, lay at 4.55 µM. This molecule also showed an inhibition in series [5] of 34%.

For the molecule `Cc1ccc(S(=O)(=O)NCC(=O)Nc2nc3cc(O)c(O)cc3s2)cc1`, the IC50 in series [1] came out at 23 µM; in series [2] it was 0.81 µM.
